{"source": "patent US20240365783A1", "about": "“HERBICIDAL MALONAMIDES” (BASF SE, priority 2021, published 2024)", "type_in_all_cases": "in vivo", "key": {"[1]": {"system": "Abutilon theophrasti (ABUTH)", "assay": "greenhouse pre-emergence herbicidal test, ABUTH", "settings": "pre-emergence method, scale from 0 to 100", "from_the_text": "(§1) The culture containers used were plastic flowerpots containing loamy sand with approximately 3.0% of humus as the substrate. The seeds of the test plants were sown separately for each species.\n(§2) For the pre-emergence treatment, the active ingredients, which had been suspended or emulsified in water, were applied directly after sowing by means of finely distributing nozzles. The containers were irrigated gently to promote germination and growth and subsequently covered with transparent plastic hoods until the test plants had rooted. This cover caused uniform germination of the test plants, unless this had been impaired by the active ingredients.\n(§3) Depending on the species, the test plants were kept at 10-25° C. or 20-35° C., respectively.\n(§4) The test period extended over 2 to 4 weeks. During this time, the test plants were tended, and their response to the individual treatments was evaluated.\n(§5) Evaluation was carried out using a scale from 0 to 100. 100 means no emergence of the test plants, or complete destruction of at least the aerial moieties, and 0 means no damage, or normal course of growth. A good herbicidal activity is given at values of 70 to <90 and a very good herbicidal activity is given at values of 90 to 100.\n(§6) The test plants used in the greenhouse experiments were of the following species: […]"}, "[2]": {"system": "Apera spica-venti (APESV)", "assay": "greenhouse pre-emergence herbicidal test, APESV", "settings": "pre-emergence method, application rate 0.500 kg/ha, scale from 0 to 100", "from_the_text": "as §1, §2, §3, §4, §5, §6"}, "[3]": {"system": "Alopercurus myosuroides (ALOMY)", "assay": "greenhouse post-emergence herbicidal test, ALOMY", "settings": "post-emergence method, application rate 0.500 kg/ha, scale from 0 to 100", "from_the_text": "as §1\n(§7) For the post-emergence treatment, the test plants were first grown to a height of 3 to 15 cm, depending on the plant habit, and only then treated with the active ingredients which had been suspended or emulsified in water. For this purpose, the test plants were either sown directly and grown in the same containers, or they were first grown separately as seedlings and transplanted into the test containers a few days prior to treatment.\nas §3, §4, §5, §6"}, "Avena fatua (AVEFA)": {"system": "Avena fatua (AVEFA)", "assay": "greenhouse post-emergence herbicidal test, AVEFA", "settings": "post-emergence method, application rate 0.500 kg/ha, scale from 0 to 100", "from_the_text": "as §1, §7, §3, §4, §5, §6"}, "Setaria viridis (SETVI)": {"system": "Setaria viridis (SETVI)", "assay": "greenhouse post-emergence herbicidal test, SETVI", "settings": "post-emergence method, application rate 0.500 kg/ha, scale from 0 to 100", "from_the_text": "as §1, §7, §3, §4, §5, §6"}, "[4]": {"system": "Lolium multiflorum (LOLMU)", "assay": "greenhouse pre-emergence herbicidal test, LOLMU", "settings": "pre-emergence method, application rate 0.250 kg/ha, scale from 0 to 100", "from_the_text": "as §1, §2, §3, §4, §5, §6"}, "[5]": {"system": "Abutilon theophrasti (ABUTH)", "assay": "greenhouse post-emergence herbicidal test, ABUTH", "settings": "post-emergence method, application rate 0.250 kg/ha, scale from 0 to 100", "from_the_text": "as §1, §7, §3, §4, §5, §6"}, "[6]": {"system": "Digitaria sanguinalis (DIGSA)", "assay": "greenhouse pre-emergence herbicidal test, DIGSA", "settings": "pre-emergence method, application rate 0.250 kg/ha, scale from 0 to 100", "from_the_text": "as §1, §2, §3, §4, §5, §6"}}, "data": [{"smiles": "COC(=O)CC(C)NC(=O)C(C)(C)C(=O)Nc1cc(Cl)cc(Cl)c1", "note": "(stereo not drawn) [Compound 1.1]", "values": [{"measurement": "herbicidal activity against ABUTH", "setting": "[1]; application rate 0.500 kg/ha", "result": "good (A good herbicidal activity is given at values of 70 to <90)"}, {"measurement": "herbicidal activity against APESV", "setting": "[2]", "result": "very good (a very good herbicidal activity is given at values of 90 to 100)"}, {"measurement": "herbicidal activity against ALOMY", "setting": "[3]", "result": "very good (a very good herbicidal activity is given at values of 90 to 100)"}, {"measurement": "herbicidal activity against AVEFA", "setting": "Avena fatua (AVEFA)", "result": "very good (a very good herbicidal activity is given at values of 90 to 100)"}, {"measurement": "herbicidal activity against SETVI", "setting": "Setaria viridis (SETVI)", "result": "very good (a very good herbicidal activity is given at values of 90 to 100)"}]}, {"smiles": "CC(C)(C(=O)Nc1cc(Cl)cc(Cl)c1)C(=O)N[C@H]1C=C[C@@H](C(=O)O)C1", "note": "(relative stereo) [Compound 1.80]", "values": [{"measurement": "herbicidal activity against LOLMU", "setting": "[4]", "result": "good (A good herbicidal activity is given at values of 70 to <90)"}]}, {"smiles": "COC(=O)C1C=CC(NC(=O)C(C)(C)C(=O)Nc2cccc(I)c2)C1", "note": "(stereo not drawn) [Compound 1.4]", "values": [{"measurement": "herbicidal activity against ABUTH", "setting": "[5]", "result": "good (A good herbicidal activity is given at values of 70 to <90)"}]}, {"smiles": "CC(C)(C(=O)Nc1cccc(OC(F)(F)F)c1)C(=O)N[C@H]1C=C[C@@H](C(=O)O)C1", "note": "(relative stereo) [Compound 1.79]", "values": [{"measurement": "herbicidal activity against DIGSA", "setting": "[6]", "result": "good (A good herbicidal activity is given at values of 70 to <90)"}]}, {"smiles": "CCc1cccc(NC(=O)C(C)(C)C(=O)NC(C)CCC(=O)OC)c1", "note": "(stereo not drawn) [Compound 1.19]", "values": [{"measurement": "herbicidal activity against ABUTH", "setting": "[1]; application rate 0.250 kg/ha", "result": "good (A good herbicidal activity is given at values of 70 to <90)"}]}]}
